Where a name gives a salt, the structure may show the parent alone.
Test system: HCT116
Assay: efficacy (fitted maximal change in viability relative to DMSO control); higher = less cytotoxic (negative = loss of viability)
Settings: 48 h
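Further: Luminescence-based viability readout, five doses per compound, normalized against on-plate DMSO and empty-well controls, followed by dose-response curve fitting for every drug.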

`CCN1\C=C(C(O)=O)/C(=O)C2=C1C(=C(N3CCNC(C)C3)C(=C2)F)F` (stereo not given) [Lomefloxacin hydrochloride] showed an efficacy of -18.8%.
Compound `COC1=C(OC)C=C2C(=CC=NC2=C1)OC3=CC=C(NC(=O)\C4=C\N(C(C)C)C(=O)N(C4=O)C5=CC=C(F)C=C5)C=C3F` has an efficacy of -13.9%.
In the case of `Cc1cn2cc(C(=O)N(C)CCO)cc(N[C@@H]3CCOc4cccc(C)c43)c2n1`, the efficacy is reported as -27.6%.
In the case of `CCOC(=O)[C@H]1O[C@@H]1C(=O)N[C@@H](CC(C)C)C(=O)NCCC(C)C` [Aloxistatin], the efficacy is reported as -5.94%.
Work on `CC1(C)O[C@@H]2C[C@H]3[C@@H]4C[C@H](F)C/5=C/C(=O)/C=C\[C@]5(C)[C@@]4(F)[C@@H](O)C[C@]3(C)[C@@]2(O1)C(=O)CO` [Fluocinolone acetonide] yielded an efficacy of -10.6%.
For `O=C(O)c1cc(/N=N/c2ccc(S(=O)(=O)Nc3ccccn3)cc2)ccc1O` [Sulfasalazine], the efficacy was 8.3%.
Compound `CCCCCCCCCCCCCCCC(=O)O[C@@H]1[C@@H](O)[C@@H](O)[C@@H]([C@H](NC(=O)[C@@H]2C[C@@H](CCC)CN2C)[C@H](C)Cl)O[C@@H]1SC.Cl` [Clindamycin palmitate] has an efficacy of -24.9%.
`CCOC(=O)[C@H](CCc1ccccc1)N[C@H]1CCc2ccccc2N(CC(=O)O)C1=O` [Benazepril] gave an efficacy of -8.42%.
In the case of `Nc1cc(c(cc1S(=O)(N)=O)S(N)(=O)=O)C(/Cl)=C(/Cl)Cl` [Clorsulon], the efficacy is reported as -7.71%.
Compound `C/C(O)=C(\C#N)C(=O)Nc1cc(Br)ccc1Br` [LFM-A13] has an efficacy of -11.7%.
`CC#C[C@]1(O)CC[C@H]2[C@@H]/3CCC/4=C/C(=O)CCC4=C3[C@H](C[C@]12C)C5=CC=C(C=C5)N(C)C` [Mifepristone] was tested, and the efficacy was -73.4%.
In the case of `COc1cc2c(cc1OC)C1CC(=O)C(CC(C)C)CN1CC2` (stereo not given) [Tetrabenazine], the efficacy is reported as -45.5%.
`C[C@]12CCC\3=C\4CCC(=O)\C=C4CC[C@H]3[C@@H]1CC[C@@]2(O)CC#N` [Dienogest] showed an efficacy of -15.9%.
`C=CC(=O)N[C@H]1CN(c2nc(Nc3cn(C)nc3OC)c3ncn(C)c3n2)C[C@@H]1F` showed an efficacy of -68%.
Compound `CCCc1cc(C(N)=S)ccn1` [Protionamide] has an efficacy of -9.17%.
In the case of `S=P(N1CC1)(N1CC1)N1CC1` [ThioTEPA], the efficacy is reported as -13.1%.
In the case of `COc1ccc(-n2c(C)c([N+](=O)[O-])c3ccc(O)cc32)cc1` [ID-8], the efficacy is reported as -14.4%.
`CCOC(=O)N[C@@H]1CC[C@@H]2[C@@H](C1)C[C@H]1C(=O)O[C@H](C)[C@H]1[C@H]2/C=C/c1ccc(-c2cccc(F)c2)cn1` [Vorapaxar] gave an efficacy of -40.6%.
`CCN(c1ccccc1)c1cc(NC)[n+](C)c(C)n1` [ICI-D7288] gave an efficacy of -13%.
`CN(C)C(=O)[C@H](O)[C@H](Cc1ccccc1)NC(=O)c1cc2cc(Cl)ccc2[nH]1` gave an efficacy of -14.2%.
In the case of `CC(C)[C@H](N)C(=O)OCCOC[N]1C=NC2=C1\N=C(N)/NC2=O` [Valaciclovir], the efficacy is reported as 8.42%.
Work on `CC/1=C/2C[C@H]3C(=C)CCC[C@]3(C)/C=C2OC1=O` [Atractylenolide I] yielded an efficacy of 6.55%.
Work on `FC(F)(F)c1ccc(CNc2ccc(Cc3c[nH]c4ncc(Cl)cc34)cn2)cn1` [Pexidartinib] yielded an efficacy of -21.9%.
Work on `CCCCn1c(=O)n(Cc2ccccc2F)c(=O)c2nc(Cc3ccc(NC(C)=O)cc3)[nH]c21` [cPEPCK Inhibitor] yielded an efficacy of -8.36%.
Work on `C[N]1C2=C(SC(=C2)[S+](C)[O-])C\3=C1C(=O)N(CC4=CC(=CC=C4)N)\N=C3` (stereo not given) [TEPP-46] yielded an efficacy of 21.5%.
In the case of `N#Cc1ccc(NC(=O)Nc2ccccc2Br)c2nn[nH]c12`, the efficacy is reported as -26%.
With `Cc1onc(-c2ccccc2)c1-c1ccc([S+](N)(=O)[O-])cc1` [Valdecoxib] the efficacy was -36.8%.
For `CNc1nc(C)nc(N[C@H]2CCC[C@@H](C(=O)NCc3ccc(C#N)cc3C(F)(F)F)C2)n1`, the efficacy was -20.5%.
With `COc1cc[nH]c2ncc(C(=O)C(=O)N3CCN(C(=O)c4ccccc4)C[C@H]3C)c1-2` the efficacy was -10.7%.
For `CNC(=O)c1ccc(-c2cnc3ncc(Cc4ccc5ncccc5c4)n3n2)cc1F` [Capmatinib], the efficacy was -28.8%.

Source: the supplement of paper PMC10290057
